Earlier results on one compound are cited in patent US8557301B2, “Oral rehydration composition” (Drip Drop, Inc., priority 2011, dated 2013).

This data set deals with net sodium and water absorption.

For `O=C(CO)[C@@H](O)[C@H](O)[C@H](O)CO` [fructose], the “effect on potassium transport” value is given as “stimulates potassium absorption”. Further, the “net sodium and water absorption stimulated, as much as glucose” value (relative to glucose) was 66-100%.
